Legend:
Format in all cases: in vivo
[1] = tested on: Canada horseweed (Conyza canadensis); assay: Test G pre/postemergence
Method in brief: (§1)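 Greenhouse pre/postemergence screen with surfactant-containing solvent formulation; postemergence plants were 1- to 4-leaf stage. Percent control (0–100) was judged by eye against controls after 12–21 days.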

[2] = tested on: Russian thistle (Salsola kali); assay: Test G pre/postemergence
Method in brief: as §1

[3] = tested on: common sowthistle (Sonchus oleraceous); assay: Test G pre/postemergence
Method in brief: as §1

[4] = tested on: common purslane (Portulaca oleracea); assay: Test G pre/postemergence
Method in brief: as §1

[5] = tested on: spanishneedles (Bidens bipinnata); assay: Test G pre/postemergence
Method in brief: as §1

kochia (Kochia scoparia) = assay: Test G pre/postemergence
Method in brief: as §1

[6] = tested on: purple nutsedge (Cyperus rotundus); assay: Test G pre/postemergence
Method in brief: as §1

[7] = tested on: sulfonylurea herbicide-susceptible (SU-susceptible) catchweed bedstraw (GALAP; Galium aparine); assay: Test K postemergence; conditions: 15 days
Method: (§2) Seeds of plant species selected from sulfonylurea herbicide-susceptible (SU-susceptible) and sulfonylurea herbicide-resistant (SU-resistant) catchweed bedstraw (GALAP; Galium aparine) and wheat (TRZAW; Triticum aestivum) were treated with postemergence applications of test chemicals formulated in a non-phytotoxic solvent mixture which included a surfactant. Plants were treated at the 2-3 leaf stage and 2 whorl stage for wheat and catchweed bedstraw, respectively. Treated plants and controls were maintained in a controlled growth environment for 15 days after which time all species were compared to controls and visually evaluated. Plant response ratings, summarized in Table K, are based on a scale of 0 to 100 where 0 is no effect and 100 is complete control. A dash (-) response means no test result.

[8] = tested on: wheat (TRZAW; Triticum aestivum); assay: Test K postemergence; conditions: 15 days
Method: as §2

[9] = tested on: sulfonylurea herbicide-resistant (SU-resistant) catchweed bedstraw (GALAP; Galium aparine); assay: Test K postemergence; conditions: 15 days
Method: as §2

[10] = tested on: sugarcane (Saccharum officinarum); assay: Test G sugarcane pre/postemergence
From the text: Also at a different time, seed pieces (nodes) of sugarcane (Saccharum officinarum) were planted and treated preemergence and/or postemergence with some of the test chemicals formulated in the same manner. Treated plants and controls were maintained in a greenhouse for 14 days, after which time the treated plants were compared to controls and visually evaluated.
Plant response ratings, summarized in Table G, are based on a scale of 0 to 100 where 0 is no effect and 100 is complete control. A dash (-) response means no test result.

[11] = Postemergence, 250 g ai/ha, scale 0 to 100
[12] = Postemergence, 500 g ai/ha, scale 0 to 100
[13] = Postemergence, 125 g ai/ha, scale 0 to 100
[14] = Postemergence, 375 g ai/ha, scale 0 to 100
[15] = Preemergence, 62 g ai/ha, scale 0-100
[16] = Preemergence, 125 g ai/ha, scale 0-100
[17] = Preemergence, 250 g ai/ha, scale 0-100
[18] = Preemergence, 500 g ai/ha, scale 0 to 100
[19] = Postemergence, 62 g ai/ha, scale 0 to 100
[20] = Preemergence, 500 g ai/ha, scale 0-100

## CCOC(=O)c1nc(C2CC2)nc(N)c1Br [Compound 1, ethyl 6-amino-5-bromo-2-cyclopropyl-4-pyrimidinecarboxylate]
[1]; [11]
  Plant response rating, Horseweed: 100
[1]; [12]
  Plant response rating, Horseweed: 100
[1]; [13]
  Plant response rating, Horseweed: 70
[1]; [14]
  Plant response rating, Horseweed: 100
[1]; [15]
  Plant response rating, Horseweed: 95
[1]; [16]
  Plant response rating, Horseweed: 95
[1]; [17]
  Plant response rating, Horseweed: 100
[1]; [18]
  Plant response rating, Horseweed: 100
[1]; Preemergence, 375 g ai/ha, scale 0 to 100
  Plant response rating, Horseweed: 100
[2]; [11]
  Plant response rating, Russian Thistle: 100
[2]; [19]
  Plant response rating, Russian Thistle: 100
[2]; [13]
  Plant response rating, Russian Thistle: 100
[2]; [14]
  Plant response rating, Russian Thistle: 100
[2]; [15]
  Plant response rating, Russian Thistle: 100
[2]; [16]
  Plant response rating, Russian Thistle: 100
[2]; [17]
  Plant response rating, Russian Thistle: 100
[2]; [20]
  Plant response rating, Russian Thistle: 100
[2]; [18]
  Plant response rating, Russian Thistle: 100
[3]; [11]
  Plant response rating, Sowthistle: 95
[3]; [12]
  Plant response rating, Sowthistle: 100
[3]; [19]
  Plant response rating, Sowthistle: 95
[3]; [13]
  Plant response rating, Sowthistle: 95
[3]; [14]
  Plant response rating, Sowthistle: 95
[3]; [15]
  Plant response rating, Sowthistle: 95
[3]; [16]
  Plant response rating, Sowthistle: 100
[3]; [17]
  Plant response rating, Sowthistle: 100
[3]; [20]
  Plant response rating, Sowthistle: 100
[3]; [18]
  Plant response rating, Sowthistle: 100
[4]; [11]
  Plant response rating, Purslane: 100
[4]; [12]
  Plant response rating, Purslane: 100
[4]; [19]
  Plant response rating, Purslane: 80
[4]; [13]
  Plant response rating, Purslane: 100
[4]; [14]
  Plant response rating, Purslane: 100
[4]; [15]
  Plant response rating, Purslane: 10
[4]; [16]
  Plant response rating, Purslane: 60
[4]; [17]
  Plant response rating, Purslane: 95
[4]; [20]
  Plant response rating, Purslane: 100
[4]; [18]
  Plant response rating, Purslane: 100
[5]; [11]
  Plant response rating, Spanishneedles: 95
[5]; [12]
  Plant response rating, Spanishneedles: 95
[5]; [19]
  Plant response rating, Spanishneedles: 80
[5]; [13]
  Plant response rating, Spanishneedles: 95
[5]; [14]
  Plant response rating, Spanishneedles: 95
[5]; [15]
  Plant response rating, Spanishneedles: 100
[5]; [16]
  Plant response rating, Spanishneedles: 100
[5]; [17]
  Plant response rating, Spanishneedles: 100
[5]; [20]
  Plant response rating, Spanishneedles: 100
[5]; [18]
  Plant response rating, Spanishneedles: 100
Kochia (Kochia scoparia); [14]
  Plant response rating, Kochia: 95
Kochia (Kochia scoparia); [15]
  Plant response rating, Kochia: 100
Kochia (Kochia scoparia); [16]
  Plant response rating, Kochia: 100
Kochia (Kochia scoparia); [17]
  Plant response rating, Kochia: 100
Kochia (Kochia scoparia); [20]
  Plant response rating, Kochia: 100
Kochia (Kochia scoparia); [18]
  Plant response rating, Kochia: 100
[6]; [11]
  Plant response rating, Nutsedge, Purple: 20
[6]; [12]
  Plant response rating, Nutsedge, Purple: 30
[6]; [13]
  Plant response rating, Nutsedge, Purple: 10
[6]; [14]
  Plant response rating, Nutsedge, Purple: 30
[6]; [15]
  Plant response rating, Nutsedge, Purple: 10
[6]; [16]
  Plant response rating, Nutsedge, Purple: 100
[6]; [17]
  Plant response rating, Nutsedge, Purple: 100
[6]; [20]
  Plant response rating, Nutsedge, Purple: 100
[6]; [18]
  Plant response rating, Nutsedge, Purple: 100
[7]; 4 g a.i./ha
  Plant response rating (0 to 100 scale): 63
[7]; 8 g a.i./ha
  Plant response rating (0 to 100 scale): 80
[7]; 16 g a.i./ha
  Plant response rating (0 to 100 scale): 98
[7]; 31 g a.i./ha
  Plant response rating (0 to 100 scale): 98
[7]; 62 g a.i./ha
  Plant response rating (0 to 100 scale): 100
[7]; 125 g a.i./ha
  Plant response rating (0 to 100 scale): 100
[8]; 4 g a.i./ha
  Plant response rating (0 to 100 scale): 0
[8]; 8 g a.i./ha
  Plant response rating (0 to 100 scale): 0
[8]; 16 g a.i./ha
  Plant response rating (0 to 100 scale): 0
[8]; 31 g a.i./ha
  Plant response rating (0 to 100 scale): 25
[8]; 62 g a.i./ha
  Plant response rating (0 to 100 scale): 30
[8]; 125 g a.i./ha
  Plant response rating (0 to 100 scale): 38
[9]; 4 g a.i./ha
  Plant response rating (0 to 100 scale): 100
[9]; 8 g a.i./ha
  Plant response rating (0 to 100 scale): 100
[9]; 16 g a.i./ha
  Plant response rating (0 to 100 scale): 100
[9]; 31 g a.i./ha
  Plant response rating (0 to 100 scale): 100
[9]; 62 g a.i./ha
  Plant response rating (0 to 100 scale): 100
[9]; 125 g a.i./ha
  Plant response rating (0 to 100 scale): 100
[10]; [11]
  Plant response rating, Sugarcane: 13
[10]; [12]
  Plant response rating, Sugarcane: 38
[10]; Postemergence, 31 g ai/ha, scale 0 to 100
  Plant response rating, Sugarcane: 0
[10]; [19]
  Plant response rating, Sugarcane: 0
[10]; [13]
  Plant response rating, Sugarcane: 3
[10]; [15]
  Plant response rating, Sugarcane: 0
[10]; [16]
  Plant response rating, Sugarcane: 0
[10]; [17]
  Plant response rating, Sugarcane: 0
[10]; Preemergence, 375 g ai/ha, scale 0-100
  Plant response rating, Sugarcane: 0
